In patent publication US20230278972A1, “SUBSTITUTED HALOALKYL SULFONANILIDE HERBICIDES” (FMC Corporation, priority 2020, published 2023):

Legend:
Format in all cases: in vivo
[1] = system: ragweed (common ragweed, Ambrosia artemisiifolia); experiment: Test A postemergence, ragweed; settings: Postemergence, 0 to 100 scale (0 no effect, 100 complete control); for Ragweed plant response rating: 500 g ai/ha, visual injury vs untreated controls after approx. 10 days
Method in brief: (§1)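 Compounds in non-phytotoxic solvent with surfactant. Soil: loam/sand. Preemergence via directed soil spray after seeding; postemergence on seedlings 2–10 cm, one- to two-leaf.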

[2] = system: barnyardgrass (Echinochloa crus-galli); experiment: Test A postemergence, barnyardgrass; settings: Postemergence, 0 to 100 scale (0 no effect, 100 complete control); for Barnyardgrass plant response rating: 500 g ai/ha, visual injury vs untreated controls after approx. 10 days
Method in brief: (§2)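 Pots: loam soil/sand blend. Pre: directed soil spray at planting. Post: plants 2–10 cm, 1–2 leaf stage. Formulation: non-phytotoxic solvent + surfactant.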

[3] = system: Ryegrass, Italian (Italian ryegrass, Lolium multiflorum); experiment: Test A preemergence, Ryegrass, Italian; settings: Preemergence; for Plant response rating, Ryegrass, Italian: 0 to 100 scale (0 no effect, 100 complete control); for Ryegrass, Italian plant response rating: 125 g ai/ha, visual injury on 0 to 100 scale (0 no effect, 100 complete control), approximately 10 days
Method in brief: as §1

[4] = system: ragweed (common ragweed, Ambrosia artemisiifolia); experiment: Test A preemergence, ragweed; settings: Preemergence; for Plant response rating, Ragweed: 0 to 100 scale (0 no effect, 100 complete control); for Ragweed plant response rating: 125 g ai/ha, visual injury on 0 to 100 scale (0 no effect, 100 complete control), approximately 10 days
Method in brief: as §1

kochia (Bassia scoparia) [5] = experiment: Test A postemergence, kochia; settings: Postemergence, 0 to 100 scale (0 no effect, 100 complete control); for Kochia plant response rating: 500 g ai/ha, visual injury vs untreated controls after approx. 10 days
Method in brief: as §1

[6] = system: pigweed (Amaranthus retroflexus); experiment: Test A preemergence, pigweed; settings: for Plant response rating, Pigweed: 0 to 100 scale (0 no effect, 100 complete control); for Pigweed plant response rating: 125 g ai/ha, visual injury on 0 to 100 scale (0 no effect, 100 complete control), approximately 10 days
Method in brief: as §2

[7] = system: pigweed (Amaranthus retroflexus); experiment: Test A postemergence, pigweed; settings: Postemergence, 0 to 100 scale (0 no effect, 100 complete control); for Pigweed plant response rating: 500 g ai/ha, visual injury vs untreated controls after approx. 10 days
Method in brief: as §1

[8] = system: galium (catchweed bedstraw, Galium aparine); experiment: Test A postemergence, galium; settings: Postemergence, 0 to 100 scale (0 no effect, 100 complete control); for Galium plant response rating: 500 g ai/ha, visual injury vs untreated controls after approx. 10 days
Method in brief: as §2

[9] = system: Foxtail, Giant (giant foxtail, Setaria faberi); experiment: Test A postemergence, Foxtail, Giant; settings: Postemergence, 0 to 100 scale (0 no effect, 100 complete control); for Foxtail, Giant plant response rating: 500 g ai/ha, visual injury vs untreated controls after approx. 10 days
Method in brief: as §1

[10] = system: Foxtail, Giant (giant foxtail, Setaria faberi); experiment: Test A preemergence, Foxtail, Giant; settings: Preemergence; for Plant response rating, Foxtail, Giant: 0 to 100 scale (0 no effect, 100 complete control); for Foxtail, Giant plant response rating: 125 g ai/ha, visual injury on 0 to 100 scale (0 no effect, 100 complete control), approximately 10 days
Method in brief: as §1

[11] = system: Ryegrass, Italian (Italian ryegrass, Lolium multiflorum); experiment: Test A postemergence, Ryegrass, Italian; settings: Postemergence, 0 to 100 scale (0 no effect, 100 complete control); for Ryegrass, Italian plant response rating: 500 g ai/ha, visual injury vs untreated controls after approx. 10 days
Method in brief: as §1

[12] = system: blackgrass (Alopecurus myosuroides); experiment: Test A postemergence, blackgrass; settings: Postemergence, 0 to 100 scale (0 no effect, 100 complete control); for Blackgrass plant response rating: 500 g ai/ha, visual injury vs untreated controls after approx. 10 days
Method in brief: as §1

[13] = system: wheat (Triticum aestivum); experiment: Test A postemergence, wheat; settings: Postemergence, 0 to 100 scale (0 no effect, 100 complete control); for Wheat plant response rating: 500 g ai/ha, visual injury vs untreated controls after approx. 10 days
Method in brief: as §2

kochia (Bassia scoparia) [14] = experiment: Test A preemergence, kochia; settings: Preemergence; for Plant response rating, Kochia: 0 to 100 scale (0 no effect, 100 complete control); for Kochia plant response rating: 125 g ai/ha, visual injury on 0 to 100 scale (0 no effect, 100 complete control), approximately 10 days
Method in brief: as §1

corn (Zea mays) = experiment: Test A postemergence, corn; settings: Postemergence, 0 to 100 scale (0 no effect, 100 complete control); for Corn plant response rating: 500 g ai/ha, visual injury vs untreated controls after approx. 10 days
Method in brief: as §1

[15] = system: barnyardgrass (Echinochloa crus-galli); experiment: Test A preemergence, barnyardgrass; settings: Preemergence; for Plant response rating, Barnyardgrass: 0 to 100 scale (0 no effect, 100 complete control); for Barnyardgrass plant response rating: 125 g ai/ha, visual injury on 0 to 100 scale (0 no effect, 100 complete control), approximately 10 days
Method in brief: as §1

[16] = 125 g ai/ha, visual injury approx. 10 days
[17] = 31 g ai/ha, visual injury, approx. 10 days

Structure (SMILES) | Plant response rating, Ragweed ([1]; 31 g ai/ha) | Plant response rating, Ragweed [1, 16] | Plant response rating, Barnyardgrass ([2]; 31 g ai/ha) | Plant response rating, Barnyardgrass [2, 16] | Plant response rating, Ryegrass, Italian [3, 17] | Ryegrass, Italian plant response rating [3] | Plant response rating, Ragweed [4, 17] | Ragweed plant response rating [4] | Plant response rating, Kochia (kochia (Bassia scoparia) [5]; [16]) | Pigweed plant response rating [6] | Plant response rating, Pigweed [7, 16] | Plant response rating, Galium [8, 16] | Plant response rating, Foxtail, Giant [9, 16] | Foxtail, Giant plant response rating [10] | Plant response rating, Ryegrass, Italian [11, 16] | Plant response rating, Blackgrass [12, 16] | Plant response rating, Wheat [13, 16] | Kochia plant response rating (kochia (Bassia scoparia) [14]) | Plant response rating, Corn (corn (Zea mays); [16]) | Barnyardgrass plant response rating [15] | further results
COC1CCCN(C(=O)c2cc(N(COC(C)=O)S(=O)(=O)C(F)(F)F)c(C)cc2C)C1 (centres unmarked) [Compound 96] | 30 | 40 | 0 | 30 | 0 | 80 | 0 | 30 | 20 | 90 | 30 | 80 | 10 | 80 | 20 | 0 | 40 | 0 | 10 | 70 | Plant response rating, Kochia (kochia (Bassia scoparia) [5]; 31 g ai/ha): 10; Plant response rating, Pigweed [6, 17]: 20; Plant response rating, Pigweed ([7]; 31 g ai/ha): 30; Plant response rating, Galium ([8]; 31 g ai/ha): 80; Plant response rating, Foxtail, Giant ([9]; 31 g ai/ha): 0; Plant response rating, Foxtail, Giant [10, 17]: 40; Plant response rating, Ryegrass, Italian ([11]; 31 g ai/ha): 0; Plant response rating, Blackgrass ([12]; 31 g ai/ha): 0; Plant response rating, Wheat ([13]; 31 g ai/ha): 0; Plant response rating, Kochia (kochia (Bassia scoparia) [14]; [17]): 0; Plant response rating, Corn (corn (Zea mays); 31 g ai/ha): 10; Plant response rating, Barnyardgrass [15, 17]: 10
COC1CCCN(C(=O)c2cc(NS(=O)(=O)C(F)(F)F)c(C)c(F)c2C)C1 (centres unmarked) [Compound 98] | 50 | 60 | 0 | 50 | 30 | 50 | 30 | 80 | 20 | 100 | 80 | 90 | 20 | 100 | 30 | 0 | 40 | 40 | 10 | 90 | Plant response rating, Kochia (kochia (Bassia scoparia) [5]; 31 g ai/ha): 10; Plant response rating, Pigweed [6, 17]: 70; Plant response rating, Pigweed ([7]; 31 g ai/ha): 30; Plant response rating, Galium ([8]; 31 g ai/ha): 60; Plant response rating, Foxtail, Giant ([9]; 31 g ai/ha): 0; Plant response rating, Foxtail, Giant [10, 17]: 80; Plant response rating, Ryegrass, Italian ([11]; 31 g ai/ha): 30; Plant response rating, Blackgrass ([12]; 31 g ai/ha): 20; Plant response rating, Wheat ([13]; 31 g ai/ha): 0; Plant response rating, Kochia (kochia (Bassia scoparia) [14]; [17]): 40; Plant response rating, Corn (corn (Zea mays); 31 g ai/ha): 0; Plant response rating, Barnyardgrass [15, 17]: 0
Cc1cc(C)c(N(S(=O)(=O)C(F)(F)F)S(=O)(=O)C(F)(F)F)cc1C1=NOC2CCCC12 (centres unmarked) [Compound 99] |  | 40 |  | 70 |  | 50 |  | 60 | 40 | 100 | 70 | 90 | 0 | 70 | 0 | 0 | 0 | 70 | 0 | 90 | Ragweed plant response rating [1]: 80; Barnyardgrass plant response rating [2]: 90; Plant response rating, Ryegrass, Italian ([3]; 500 g ai/ha): 90; Plant response rating, Ragweed ([4]; 500 g ai/ha): 90; Kochia plant response rating (kochia (Bassia scoparia) [5]): 90; Plant response rating, Pigweed ([6]; 500 g ai/ha): 100; Pigweed plant response rating [7]: 100; Galium plant response rating [8]: 90; Foxtail, Giant plant response rating [9]: 10; Plant response rating, Foxtail, Giant ([10]; 500 g ai/ha): 80; Ryegrass, Italian plant response rating [11]: 60; Blackgrass plant response rating [12]: 20; Wheat plant response rating [13]: 50; Plant response rating, Kochia (kochia (Bassia scoparia) [14]; 500 g ai/ha): 100; Corn plant response rating (corn (Zea mays)): 0; Plant response rating, Barnyardgrass ([15]; 500 g ai/ha): 100
COC1(OC)CCN(C(=O)c2cc(NS(=O)(=O)C(F)(F)F)c(C)cc2C)CC1 [Compound 101] |  | 50 |  | 80 |  | 80 |  | 60 | 10 | 90 | 70 | 80 | 0 | 90 | 60 | 20 | 0 | 60 | 20 | 100 | Ragweed plant response rating [1]: 70; Barnyardgrass plant response rating [2]: 90; Plant response rating, Ryegrass, Italian ([3]; 500 g ai/ha): 100; Plant response rating, Ragweed ([4]; 500 g ai/ha): 80; Kochia plant response rating (kochia (Bassia scoparia) [5]): 30; Plant response rating, Pigweed ([6]; 500 g ai/ha): 90; Pigweed plant response rating [7]: 90; Galium plant response rating [8]: 90; Foxtail, Giant plant response rating [9]: 80; Plant response rating, Foxtail, Giant ([10]; 500 g ai/ha): 100; Ryegrass, Italian plant response rating [11]: 70; Blackgrass plant response rating [12]: 20; Wheat plant response rating [13]: 60; Plant response rating, Kochia (kochia (Bassia scoparia) [14]; 500 g ai/ha): 90; Corn plant response rating (corn (Zea mays)): 30; Plant response rating, Barnyardgrass ([15]; 500 g ai/ha): 100
